Results reported in the NIST ThermoML archive (doi:10.1021/je100832h).
Numbers after ± are expanded uncertainties.

Experiments:
[1] = excess molar enthalpy (molar enthalpy of mixing); xn = mol fraction of the nth substance listed; conditions: 101 kPa, Liquid, Calvet calorimetry
[2] = xn = mol fraction of the nth substance listed; conditions: 101.32 kPa, Liquid, Vibrating tube method

CCCCCCCC [octane] + CCOC(C)=O
Conditions | excess molar enthalpy [kcal/mol] | mass density [kg/m3]
[1], 291.15 K, x2 = 0.0994 | 0.146 ± 0.00311 | –
[1], 291.15 K, x2 = 0.1715 | 0.23 ± 0.00502 | –
[1], 291.15 K, x2 = 0.254 | 0.303 ± 0.00645 | –
[1], 291.15 K, x2 = 0.3369 | 0.355 ± 0.00765 | –
[1], 291.15 K, x2 = 0.4081 | 0.383 ± 0.00813 | –
[1], 291.15 K, x2 = 0.474 | 0.399 ± 0.0086 | –
[1], 291.15 K, x2 = 0.5317 | 0.4 ± 0.0086 | –
[1], 291.15 K, x2 = 0.5698 | 0.392 ± 0.00837 | –
[1], 291.15 K, x2 = 0.5955 | 0.386 ± 0.00837 | –
[1], 291.15 K, x2 = 0.6441 | 0.371 ± 0.00789 | –
[1], 291.15 K, x2 = 0.6953 | 0.344 ± 0.00741 | –
[1], 291.15 K, x2 = 0.7435 | 0.313 ± 0.00669 | –
[1], 291.15 K, x2 = 0.7996 | 0.272 ± 0.00574 | –
[1], 291.15 K, x2 = 0.853 | 0.226 ± 0.00478 | –
[1], 291.15 K, x2 = 0.8967 | 0.176 ± 0.00382 | –
[1], 291.15 K, x2 = 0.9435 | 0.118 ± 0.00263 | –
[1], 291.15 K, x2 = 0.981 | 0.0581 ± 0.00143 | –
[1], 298.15 K, x2 = 0.0774 | 0.102 ± 0.00215 | –
[1], 298.15 K, x2 = 0.1517 | 0.178 ± 0.00382 | –
[1], 298.15 K, x2 = 0.2198 | 0.243 ± 0.00526 | –
[1], 298.15 K, x2 = 0.2861 | 0.293 ± 0.00621 | –
[1], 298.15 K, x2 = 0.3374 | 0.326 ± 0.00693 | –
[1], 298.15 K, x2 = 0.3769 | 0.352 ± 0.00765 | –
[1], 298.15 K, x2 = 0.4335 | 0.377 ± 0.00813 | –
[1], 298.15 K, x2 = 0.4856 | 0.384 ± 0.00813 | –
[1], 298.15 K, x2 = 0.5281 | 0.383 ± 0.00813 | –
[1], 298.15 K, x2 = 0.5773 | 0.38 ± 0.00813 | –
[1], 298.15 K, x2 = 0.6255 | 0.371 ± 0.00789 | –
[1], 298.15 K, x2 = 0.6736 | 0.351 ± 0.00741 | –
[1], 298.15 K, x2 = 0.7261 | 0.325 ± 0.00693 | –
[1], 298.15 K, x2 = 0.7729 | 0.292 ± 0.00621 | –
[1], 298.15 K, x2 = 0.8276 | 0.246 ± 0.00526 | –
[1], 298.15 K, x2 = 0.8796 | 0.191 ± 0.00406 | –
[1], 298.15 K, x2 = 0.9202 | 0.129 ± 0.00287 | –
[1], 298.15 K, x2 = 0.9644 | 0.0648 ± 0.00143 | –
[1], 318.15 K, x2 = 0.0832 | 0.111 ± 0.00239 | –
[1], 318.15 K, x2 = 0.1591 | 0.195 ± 0.0043 | –
[1], 318.15 K, x2 = 0.2322 | 0.267 ± 0.00574 | –
[1], 318.15 K, x2 = 0.3009 | 0.319 ± 0.00693 | –
[1], 318.15 K, x2 = 0.3637 | 0.353 ± 0.00765 | –
[1], 318.15 K, x2 = 0.4184 | 0.374 ± 0.00789 | –
[1], 318.15 K, x2 = 0.4655 | 0.384 ± 0.00813 | –
[1], 318.15 K, x2 = 0.5112 | 0.388 ± 0.00837 | –
[1], 318.15 K, x2 = 0.5525 | 0.386 ± 0.00813 | –
[1], 318.15 K, x2 = 0.5886 | 0.382 ± 0.00813 | –
[1], 318.15 K, x2 = 0.6324 | 0.371 ± 0.00789 | –
[1], 318.15 K, x2 = 0.6807 | 0.355 ± 0.00765 | –
[1], 318.15 K, x2 = 0.7307 | 0.328 ± 0.00693 | –
[1], 318.15 K, x2 = 0.7788 | 0.293 ± 0.00621 | –
[1], 318.15 K, x2 = 0.8291 | 0.248 ± 0.00526 | –
[1], 318.15 K, x2 = 0.8801 | 0.192 ± 0.00406 | –
[1], 318.15 K, x2 = 0.9259 | 0.13 ± 0.00287 | –
[1], 318.15 K, x2 = 0.9646 | 0.0667 ± 0.00167 | –
[2], 291.15 K, x2 = 0 | – | 704.13 ± 0.55
[2], 291.15 K, x2 = 0.0296 | – | 707.15 ± 0.68
[2], 291.15 K, x2 = 0.0628 | – | 710.48 ± 0.7
[2], 291.15 K, x2 = 0.1163 | – | 716.36 ± 0.72
[2], 291.15 K, x2 = 0.1605 | – | 721.46 ± 0.74
[2], 291.15 K, x2 = 0.2056 | – | 727.01 ± 0.77
[2], 291.15 K, x2 = 0.2901 | – | 738.23 ± 0.8
[2], 291.15 K, x2 = 0.3723 | – | 750.35 ± 0.85
[2], 291.15 K, x2 = 0.4427 | – | 761.76 ± 0.9
[2], 291.15 K, x2 = 0.5131 | – | 774.24 ± 0.95
[2], 291.15 K, x2 = 0.5744 | – | 785.94 ± 1
[2], 291.15 K, x2 = 0.6332 | – | 798.14 ± 1.1
[2], 291.15 K, x2 = 0.6886 | – | 810.54 ± 1.1
[2], 291.15 K, x2 = 0.7414 | – | 823.25 ± 1.2
[2], 291.15 K, x2 = 0.7945 | – | 836.98 ± 1.3
[2], 291.15 K, x2 = 0.84 | – | 849.83 ± 1.4
[2], 291.15 K, x2 = 0.895 | – | 866.53 ± 1.4
[2], 291.15 K, x2 = 0.9304 | – | 878.05 ± 1.5
[2], 291.15 K, x2 = 0.9523 | – | 885.46 ± 1.6
[2], 298.15 K, x2 = 0 | – | 698.6 ± 0.54
[2], 298.15 K, x2 = 0.0485 | – | 703.3 ± 0.68
[2], 298.15 K, x2 = 0.0998 | – | 708.8 ± 0.71
[2], 298.15 K, x2 = 0.1711 | – | 716.9 ± 0.74
[2], 298.15 K, x2 = 0.2518 | – | 727.02 ± 0.77
[2], 298.15 K, x2 = 0.3198 | – | 736.29 ± 0.81
[2], 298.15 K, x2 = 0.3814 | – | 745.42 ± 0.85
[2], 298.15 K, x2 = 0.4622 | – | 758.48 ± 0.88
[2], 298.15 K, x2 = 0.4977 | – | 764.69 ± 0.94
[2], 298.15 K, x2 = 0.5598 | – | 776.23 ± 1
[2], 298.15 K, x2 = 0.6548 | – | 795.8 ± 1.1
[2], 298.15 K, x2 = 0.6729 | – | 799.8 ± 1.1
[2], 298.15 K, x2 = 0.6865 | – | 802.9 ± 1.1
[2], 298.15 K, x2 = 0.755 | – | 819.2 ± 1.2
[2], 298.15 K, x2 = 0.7913 | – | 828.6 ± 1.2
[2], 298.15 K, x2 = 0.8335 | – | 840.2 ± 1.3
[2], 298.15 K, x2 = 0.8686 | – | 850.5 ± 1.4
[2], 298.15 K, x2 = 0.9039 | – | 861.4 ± 1.5
[2], 298.15 K, x2 = 0.9578 | – | 879.3 ± 1.5
[2], 318.15 K, x2 = 0 | – | 682.16 ± 0.53
[2], 318.15 K, x2 = 0.034 | – | 685.37 ± 0.66
[2], 318.15 K, x2 = 0.108 | – | 692.6 ± 0.68
[2], 318.15 K, x2 = 0.1961 | – | 702.19 ± 0.72
[2], 318.15 K, x2 = 0.2859 | – | 713.24 ± 0.76
[2], 318.15 K, x2 = 0.3635 | – | 723.8 ± 0.8
[2], 318.15 K, x2 = 0.4203 | – | 732.23 ± 0.84
[2], 318.15 K, x2 = 0.4875 | – | 743.04 ± 0.89
[2], 318.15 K, x2 = 0.5678 | – | 757.24 ± 0.93
[2], 318.15 K, x2 = 0.6088 | – | 765.1 ± 1
[2], 318.15 K, x2 = 0.6633 | – | 776.23 ± 1
[2], 318.15 K, x2 = 0.7123 | – | 786.92 ± 1.1
[2], 318.15 K, x2 = 0.764 | – | 799.14 ± 1.2
[2], 318.15 K, x2 = 0.8086 | – | 810.54 ± 1.2
[2], 318.15 K, x2 = 0.8487 | – | 821.51 ± 1.3
[2], 318.15 K, x2 = 0.8943 | – | 834.53 ± 1.4
[2], 318.15 K, x2 = 0.932 | – | 846.34 ± 1.4
[2], 318.15 K, x2 = 0.9762 | – | 860.93 ± 1.5
[2], 328.15 K, x2 = 0 | – | 674.15 ± 0.53
[2], 328.15 K, x2 = 0.0441 | – | 678 ± 0.65
[2], 328.15 K, x2 = 0.1138 | – | 684.7 ± 0.67
[2], 328.15 K, x2 = 0.2084 | – | 694.85 ± 0.7
[2], 328.15 K, x2 = 0.2915 | – | 704.8 ± 0.75
[2], 328.15 K, x2 = 0.3741 | – | 715.9 ± 0.79
[2], 328.15 K, x2 = 0.4415 | – | 725.91 ± 0.84
[2], 328.15 K, x2 = 0.5234 | – | 739.31 ± 0.89
[2], 328.15 K, x2 = 0.5735 | – | 748.22 ± 0.94
[2], 328.15 K, x2 = 0.6354 | – | 760.07 ± 0.99
[2], 328.15 K, x2 = 0.6861 | – | 770.65 ± 1.1
[2], 328.15 K, x2 = 0.7435 | – | 783.45 ± 1.1
[2], 328.15 K, x2 = 0.7958 | – | 796.07 ± 1.2
[2], 328.15 K, x2 = 0.8407 | – | 807.86 ± 1.2
[2], 328.15 K, x2 = 0.8822 | – | 819.28 ± 1.3
[2], 328.15 K, x2 = 0.927 | – | 832.83 ± 1.4
[2], 328.15 K, x2 = 0.9737 | – | 848.01 ± 1.5
